Assay results published in patent US9814714B2, “Kinase modulation, and indications therefor” (Plexxikon Inc., priority 2015, dated 2017).
Like-named read-outs stand apart in the source and are kept apart here.

Experiments:
[1] = tested on: pMEK in IPC-298 cells (NRAS-Q61L); test: Phospho-MEK AlphaScreen assay, pMEK activation in IPC-298; type: cell-based; settings: Homo sapiens
Description: (§1) Using AlphaScreen® technology, the ability of Formula I to affect the phosphorylation of ERK and MEK in the cells was measured quantitatively. Following treatment with compound, the cells were lysed, and a sample of the lysate was transferred to an assay plate. The lysate was mixed with antibodies directed against total ERK/MEK, antibodies that recognize specific phosphorylation sites on ERK/MEK, AlphaScreen® anti-mouse IgG Acceptor beads, and Streptavidin Donor beads. Upon excitation of the donor beads with laser light at 680 nm, singlet oxygen was produced. This singlet oxygen was rapidly quenched, unless the AlphaScreen® Acceptor beads were in close proximity, in which case a proximity signal can be measured at 580 nm. In the presence of phosphorylated ERK/MEK, there is a very strong proximity signal. BRAF-V600 inhibitors affect a decrease in this proximity signal in cells expressing BRAF-V600E (e.g. A375) through a decrease in phosphorylation of the BRAF effectors ERK and MEK.
(§2) 1. One day before the assay, 50,000 cells were plated in each well of a 96-well tissue-culture-treated plate (Corning #3610) in a 50 μL volume. Cells were incubated at 37° C. overnight.
(§3) 2. Compounds were diluted in DMSO to 500× final concentration. Each compound was plated as an 8-point titration, using 1:3 dilutions in DMSO. The maximum concentration was about 5 mM.
3. […]

[2] = tested on: pERK in B9 cells (HRAS^Q61L); test: Phospho-ERK AlphaScreen assay, pERK activation in B9; type: cell-based, murine; settings: Mus musculus
Description: (§4) Phospho-ERK AlphaScreen® assay: The degree of ERK phosphorylation was determined using an AlphaScreen® assay where an increase in ERK1/2 phosphorylation at Thr202/Tyr204 brought the donor and acceptor AlphaScreen® beads into close proximity, generating a signal for quantification. To determine the effects of compound treatment on phosphorylation of ERK1/2, cells were plated in a 96-well plate and treated with an 8-point titration of compound for one hour at 37° C. before lysis. To detect pERK, cell lysates were incubated with streptavidin-coated AlphaScreen® donor beads, anti-mouse IgG AlphaScreen® acceptor beads, a biotinylated anti-ERK1/2 rabbit antibody, and a mouse antibody that recognizes ERK1/2 only when it is phosphorylated on Thr202 and Tyr204. The biotinylated ERK1/2 antibody binds to both the streptavidin-coated AlphaScreen® donor beads and to ERK1/2 (regardless of its phosphorylation state), and the phospho-ERK1/2 antibody binds to the acceptor beads and to ERK1/2 that is phosphorylated at Thr202/Tyr204. An increase in ERK1/2 phosphorylation at Thr202/Tyr204 brings the donor and acceptor AlphaScreen® beads into close proximity, generating a signal that can be quantified on an EnVision reader (Perkin Elmer).
as §1, with “signal.” for “signal. BRAF-V600 inhibitors affect a decrease in this proximity signal in cells expressing BRAF-V600E (e.g. A375) through a decrease in phosphorylation of the BRAF effectors ERK and MEK.”
as §2, §3
(§5) 3. 1 μl of compound was added to each well of a 96-well polypropylene plate (Corning #3363). For A375, COLO829, SK-MEL-3, HCT116, and HT-29, the high control was DMSO, and the low control was 10 μM PLX4720 (CAS No. 918505-84-7). For B9 and IPC-298, the high control was 3.33 μM PLX4720, and the low control was DMSO. 4. 249 μL growth media was added to compounds, diluting them 250-fold. 5. […] The compound was incubated with the cells at 37° C. for one hour. 6. The media was aspirated, and the cells were lysed in 50 μL of ice-cold 1× Cell Lysis buffer. The plates were incubated on ice for 5 minutes to allow complete lysis of the cells. 7. A mixture of biotinylated donor antibody, acceptor antibody, and anti-mouse IgG AlphaScreen® acceptor beads in 1× AlphaLISA immunoassay buffer was prepared. 8. 5 μL of lysate was transferred to a 384-well assay plate (Perkin Elmer #6005359). 5 μL of the antibody and acceptor bead mixture was added. The plates were spinned.

[3] = tested on: pERK in A375 cells (BRAF^V600E, homozygous); test: Phospho-ERK AlphaScreen assay, pERK inhibition in A375; type: cell-based; settings: Homo sapiens, A-375, 1 h, read-out: pERK inhibition IC50 A375
Description: as §4
as §1, with “signal.” for “signal. BRAF-V600 inhibitors affect a decrease in this proximity signal in cells expressing BRAF-V600E (e.g. A375) through a decrease in phosphorylation of the BRAF effectors ERK and MEK.”
as §2, §3, §5

[4] = tested on: pMEK in B9 cells (HRAS-Q61L); test: Phospho-MEK AlphaScreen assay, pMEK activation in B9; type: cell-based, murine; settings: Mus musculus
Description: as §1, §2, §3
3. […]

[5] = tested on: pERK in IPC-298 cells (NRAS^Q61L); test: Phospho-ERK AlphaScreen assay, pERK activation in IPC-298; type: cell-based, human; settings: for EC50: Homo sapiens
Description: as §4
as §1, with “signal.” for “signal. BRAF-V600 inhibitors affect a decrease in this proximity signal in cells expressing BRAF-V600E (e.g. A375) through a decrease in phosphorylation of the BRAF effectors ERK and MEK.”
as §2, §3, §5

[6] = tested on: cell model that expresses the same HRAS mutation prevalent in squamous cell tumors; test: HRAS mutant cell model: growth and MAPK pathway response gene expression; type: cell-based
From the text: In a cell model that expresses the same HRAS mutation prevalent in squamous cell tumors from patients treated with RAF inhibitors, first-generation RAF inhibitors stimulate the in vitro and in vivo growth of the cells and induce the expression of MAPK pathway response genes including EGFR ligands. […] Based on these advantageous properties of the compound of either Formula I or Formula II, enhanced tolerability and, in turn, increased drug dosage may be obtained.

[7] = B9, HRAS^Q61L, concentration increasing pERK to 50% compared to positive control 10 μM PLX4720, read-out: pERK activation EC50 B9
[8] = read-out: pERK activation Mean EC50, B9
[9] = A375, BRAF^V600E homozygous, one hour treatment
[10] = IPC-298, read-out: pERK activation Mean EC50, IPC-298
[11] = IPC-298, NRAS^Q61L, concentration increasing pERK to 50% compared to positive control 10 μM PLX4720, read-out: pERK activation EC50 IPC298

SMILES	EC50 [1]	EC50 [2, 7]	EC50 [2, 8]	IC50 [3, 9]	EC50 [4]	EC50 [5, 10]	EC50 [5, 11]	MAPK signaling / pERK increase in IPC-298 (in words) ([5]; FIG. 1(B), NRAS^Q61L)	Stimulation of in vitro and in vivo growth and induction of MAPK pathway response genes including EGFR ligands (in words) [6]	IC50 [3]
CCCS(=O)(=O)Nc1ccc(F)c(C(=O)c2c[nH]c3ncc(-c4ccc(Cl)cc4)cc23)c1F [Vemurafenib, vemurafenib, reference compound]	1010 nM	360 nM	560 nM	32 nM	588 nM	840 nM	540 nM	–	–	–
CCN(C)S(=O)(=O)Nc1ccc(F)c(C(=O)c2c[nH]c3ncc(-c4cnc(C5CC5)nc4)cc23)c1F [Formula II, 5-(2-cyclopropylpyrimidin-5-yl)-3-[3-[[ethyl(methyl)sulfamoyl]amino]-2,6-difluoro-benzoyl]-1H-pyrrolo[2,3-b]pyridine]	–	> 200000 nM	–	3.5 nM	–	–	> 200000 nM	negligible pERK increase	no such effect	–
O=C(c1c(F)ccc(NS(=O)(=O)N2CC[C@@H](F)C2)c1F)c1c[nH]c2ncc(-c3cnc(C4CC4)nc3)cc12 [Formula I, (3R)—N-[3-[5-(2-cyclopropylpyrimidin-5-yl)-1H-pyrrolo[2,3-b]pyridine-3-carbonyl]-2,4-difluorophenyl]-3-fluoropyrrolidine-1-sulfonamide]	10000 nM	> 200000 nM	≥ 10000 nM	–	10000 nM	10000 nM	> 200000 nM	–	no such effect	16 nM
